“And” between values parts separate entries of the source, which are not always exact repeats. Identical values can stand only once.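 Interpolation was linear, between the two tested concentrations surrounding the appropriate level; five concentrations were tested over 48 hours in 96-well plates. GI50 marks 50% less growth. TGI: total growth inhibition.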
Experiments:
Test in all cases: growth of human tumour cells (NCI), 48 h
CCRF-CEM leukemia = test system: CCRF-CEM leukemia
EKVX NSCLC = test system: EKVX NSCLC
HT29 colon = test system: HT29 colon
M14 melanoma = test system: M14 melanoma
MOLT-4 leukemia = test system: MOLT-4 leukemia
OVCAR-3 ovarian = test system: OVCAR-3 ovarian
OVCAR-8 ovarian = test system: OVCAR-8 ovarian
SF-268 CNS = test system: SF-268 CNS
SK-MEL-28 melanoma = test system: SK-MEL-28 melanoma
UACC-62 melanoma = test system: UACC-62 melanoma

Row | Compound | GI50 (CCRF-CEM leukemia) | TGI (CCRF-CEM leukemia) | GI50 (EKVX NSCLC) | TGI (EKVX NSCLC) | GI50 (HT29 colon) | TGI (HT29 colon) | GI50 (M14 melanoma) | TGI (M14 melanoma) | GI50 (MOLT-4 leukemia) | TGI (MOLT-4 leukemia) | GI50 (OVCAR-3 ovarian) | TGI (OVCAR-3 ovarian) | GI50 (OVCAR-8 ovarian) | TGI (OVCAR-8 ovarian) | GI50 (SF-268 CNS) | TGI (SF-268 CNS) | GI50 (SK-MEL-28 melanoma) | TGI (SK-MEL-28 melanoma) | GI50 (UACC-62 melanoma) | TGI (UACC-62 melanoma)
1 | CC[Si](CC)(CC)OC[C@]1([C@@H]2COC(C)(C)O2)CC=CC(=O)O1 | 6.46 µM | > 100 µM | 31.5 µM | > 100 µM | 46.8 µM | > 100 µM | 33 µM | > 100 µM | 31.7 µM | > 100 µM | 32.6 µM | > 100 µM | 26.4 µM | 91.8 µM | 41.5 µM | > 100 µM | 19.8 µM | 85.3 µM | 25.6 µM | > 100 µM
2 | COc1c(Cl)c2c(c(OC)c1OC)-c1ccc(SC)c(=O)cc1[C@@H](NC(=O)OCC(F)(F)F)CC2 | < 0.01 µM | > 100 µM | < 0.01 µM | > 100 µM | < 0.01 µM | 23.8 µM | < 0.01 µM |  | < 0.01 µM | > 100 µM | < 0.01 µM | < 0.01 µM | < 0.01 µM | > 100 µM | < 0.0105 µM | > 90.5 µM | 5.99 µM | > 100 µM | < 0.01 µM | 21.2 µM
3 | O=c1[nH]ccc2nc(N3CCC(O)CC3)nc(Nc3cccc(C(F)(F)F)c3)c12 | 2.1 µM | > 100 µM | 2.85 µM | 12.1 µM | 3.88 µM | 96.3 µM | 1.55 µM | 8.23 µM | 2.24 µM | 7.75 µM | 1.34 µM | 3.98 µM | 3.29 µM | 40.6 µM | 3.06 µM | 35.3 µM | 4.63 µM | 17.4 µM | 1.84 µM | 6.95 µM
4 | NC(=O)c1ccc2c(-c3ccnc(NCCCO)n3)c(-c3ccc(F)cc3)nn2c1 | > 25 µM | > 25 µM | > 25 µM | > 25 µM | > 21.2 µM | > 25 µM | > 25 µM | > 25 µM | > 25 µM | > 25 µM | 18.6 µM | > 25 µM | > 25 µM | > 25 µM | > 22.2 µM | > 25 µM | > 25 µM | > 25 µM | > 25 µM | > 25 µM
5 | CCOc1ccc(Nc2nc(-c3ccc4c(c3)NC(=O)CO4)cs2)cc1 | 6.28 µM | > 100 µM | 6.59 µM | > 100 µM | 5.74 µM | > 100 µM | 4.33 µM | 17.4 µM | 2.01 µM | 5.28 µM | 20.2 µM | > 100 µM | 4 µM | > 100 µM | 36.7 µM | > 100 µM | 4.29 µM | 19.6 µM | 6.94 µM | 23.5 µM
6 | O=c1ccnc2c1ccc1[nH]cccc12 |  | > 100 µM |  | > 100 µM |  | > 100 µM |  | > 100 µM |  | > 100 µM |  | > 100 µM |  | > 100 µM |  | > 100 µM |  | > 100 µM |  | > 100 µM
7 | COc1cc(C=Nc2ccc(C(C)C)cc2)cc(OC)c1OC |  | > 100 µM |  | > 100 µM |  | > 100 µM |  | > 100 µM |  | > 100 µM |  | > 100 µM |  | > 100 µM |  | > 100 µM |  | > 100 µM |  | > 100 µM
8 | Cc1cc(I)cc(CN(C)CCN2CCCC2)c1O | 22.3 µM | 86 µM | 41.2 µM | > 100 µM | 17.3 µM | 35.5 µM | 15.8 µM | 34.8 µM | 3.35 µM | 21 µM | 38.2 µM | > 100 µM | 46.7 µM | > 100 µM | 32.4 µM | > 88.2 µM | 17.7 µM | 35.4 µM | 17.2 µM | 33.2 µM
9 | CSc1nc(NC(=O)O)c(N(C(C)=O)C(=O)O)c(=O)n1C |  | > 100 µM |  | > 100 µM |  | > 100 µM |  | > 100 µM |  | > 100 µM |  | > 100 µM |  | > 100 µM |  | > 100 µM |  | > 100 µM |  | > 100 µM
10 | COc1ccc(C(=O)OC2C=COC(C)C2OC(=O)c2ccc(OC)cc2)cc1 (centres undefined) |  | 52.4 µM |  | > 100 µM |  | 62.4 µM |  | 35.9 µM |  | 56 µM |  | 32.3 µM |  | > 73.7 µM |  | 44.7 µM |  | 33.2 µM |  | 37.7 µM
11 | COc1ccc(-c2nc3ncccn3c2/C=C/C(=O)c2cc(OC)c(OC)c(OC)c2)cc1 | 4.01 µM | > 100 µM | 1.61 µM | 6.06 µM | 2.19 µM | 4.38 µM | 1.53 µM | 3.08 µM | 3.1 µM | > 100 µM | 1.75 µM | 4.79 µM | 2.72 µM | > 100 µM | 2.36 µM | 9.62 µM | 1.65 µM | 3.27 µM | 1.82 µM | 3.42 µM
12 | CC1(C)CC(n2cnc(-c3ccc(F)cc3)c2-c2ccnc(N)n2)CC(C)(C)N1 | > 25 µM | > 25 µM | > 25 µM | > 25 µM | 11.1 µM | > 25 µM | > 25 µM | > 25 µM | 17.4 µM | > 25 µM | > 25 µM | > 25 µM | 15.6 µM | > 25 µM | 18.7 µM | > 25 µM | > 25 µM | > 25 µM | > 25 µM | > 25 µM
13 | CC1=C2C[C@H]3[C@@H](CC=C4C[C@@H](O)CC[C@@]43C)[C@@H]2CC[C@]12O[C@@H]1C[C@H](C)CN[C@H]1[C@H]2C | 22.6 µM and 23.4 µM | 50 µM and 80 µM | 51.9 µM | > 100 µM | 26.2 µM | 50 µM | > 50 µM and 19.6 µM | > 50 µM and 44.1 µM | 17.7 µM and 20.5 µM | 50 µM and 58.6 µM | 12.2 µM and 21 µM | 42.8 µM and 43.2 µM | 11.6 µM and 20.2 µM | 50 µM and 48.5 µM | 21.2 µM and 23.7 µM | 50 µM and 50.9 µM | > 50 µM and 48.5 µM | > 100 µM | 24.6 µM and 21.1 µM | 50 µM and 43.7 µM
14 | O=C1c2cc([N+](=O)[O-])ccc2-c2cccc(F)c21 |  | > 100 µM |  | 51.5 µM |  | > 100 µM |  | > 100 µM |  | > 100 µM |  | > 100 µM |  | > 100 µM |  | > 100 µM |  | > 100 µM |  | > 100 µM
15 | CCOC(=O)NC(=O)c1cn(CCCOC(=O)CCCCCCCCCCC(=O)OCCCn2cc(C(=O)NC(=O)OCC)c(=O)n(C)c2=O)c(=O)n(C)c1=O |  | > 100 µM |  | > 100 µM |  | > 100 µM |  | > 100 µM |  | > 100 µM |  | > 100 µM |  | > 100 µM |  | > 100 µM |  | > 100 µM |  | > 100 µM
16 | NC(=N\N=C/c1cccc([N+](=O)[O-])c1)/C(N)=N\N=C/c1cccc([N+](=O)[O-])c1 | > 100 µM | > 100 µM | > 100 µM | > 100 µM | > 100 µM | > 100 µM | > 100 µM | > 100 µM | > 100 µM | > 100 µM | > 100 µM | > 100 µM | > 100 µM | > 100 µM | > 100 µM | > 100 µM | > 100 µM | > 100 µM | > 100 µM | > 100 µM
17 | COC(=O)C12CC3CC(C1)CC(C(=O)OC)(C3)C2 |  | > 100 µM |  | > 100 µM |  | > 100 µM |  | > 100 µM |  | > 100 µM |  | > 100 µM |  | > 100 µM |  | > 100 µM |  | > 100 µM |  | > 100 µM
18 | O=C(CC12CC3CC(CC(C3)C1)C2)NCCOCCOCCOCCNC(=O)c1cc2c(o1)C(=O)c1ccccc1C2=O | 2.72 µM | 20.7 µM | 2.23 µM | 5.29 µM | 2.46 µM | 6.36 µM | 0.222 µM | 0.491 µM | 2.02 µM | 6.22 µM | 0.395 µM | 1.79 µM | 1.15 µM | 10.6 µM | 2.17 µM | 5.59 µM | 1.7 µM | 3.27 µM | 0.343 µM | 1.19 µM
19 | CCCN1CN(C(C(=O)N[C@@H]2C(=O)N3C(C(=O)O)=C(C)CSC23)c2ccc(O)cc2)CSC1=S (some centres undefined) |  | > 100 µM |  | > 100 µM |  | > 100 µM |  | > 100 µM |  | > 100 µM |  | > 100 µM |  | > 100 µM |  | > 100 µM |  | > 100 µM |  | > 100 µM
20 | Nc1nc(=S)[nH]c(C(=O)Nc2ccc(Cl)c(Cl)c2)c1-c1ccc(Cl)cc1 |  | > 100 µM |  | > 100 µM |  | > 100 µM |  | > 100 µM |  | > 100 µM |  | > 100 µM |  | > 100 µM |  | > 100 µM |  | > 100 µM |  | > 100 µM
